# Test results published in patent US12240869B2, “Inhibitors of cyclin-dependent kinase 7 (CDK7)” (Syros Pharmaceuticals, Inc., priority 2018, dated 2025).
# What was measured:
# [1] = system: PDX models BR5010 (TNBC), LU5178 (SCLC), OV15398 (HGSOC); assay: Tumor growth inhibition in TNBC, SCLC and HGSOC PDX models (Example 10); assay type: in vivo, NOD/SCID mice
# [2] = system: palbociclib-resistant ER+BC PDX (ST1799) model; assay: Tumor growth inhibition in palbociclib-resistant PDX model; assay type: in vivo, mice; conditions: last day of 28-day dosing, Compound 101 6 mg/kg QD PO, fulvestrant 2.5 mg/kg weekly SC, palbociclib 50 mpk QD PO
# Description: (§1) Tumor growth inhibition was evaluated in estrogen receptor-positive breast cancer (ER+BC) PDX models selected in vivo for resistance to the CDK4/6 inhibitor palbociclib (ST1799, n=1) or resistance to both palbociclib and fulvestrant (ST941, n=1). Dosing was initiated when tumors were 100-200 mm^3.
# [3] = system: SCLC cell line (NCI-H1048); assay: In vitro combination study, CellTiter-Glo viability, CalcuSyn; assay type: cell-based; conditions: 5 days; median effect principle (Chou-Talalay)
# From the text: (§2) Combination effect is reflected by shift in IC50 of Compound 101 with addition of carboplatin or oxaliplatin or increased antiproliferative effect with lower amounts of either single agent. This is visualized in the isobolograms of FIG. 5, where points below the diagonal line reflect synergy.
# [4] = system: CRC cell line RKO (BRAF p.V600E mutant); assay: as above; assay type: cell-based; conditions: 5 days
# From the text: as §2
# [5] = system: HR+ breast cancer cell line MCF7 (PIK3CA p.E545K); assay: as above; assay type: cell-based; conditions: 5 days
# [6] = system: CRC cell line SW480 (KRAS p.G12V mutant); assay: as above; assay type: cell-based; conditions: 5 days
# [7] = system: ST390 (modeling pancreatic ductal adenocarcinoma (PDAC)); assay: Tumor growth inhibition in PDAC PDX model; assay type: in vivo; conditions: 6 mg/kg QD PO, over ~28 days, dose well below the MTD
# Description: In the PDAC model, Compound 101 was orally administered to tumor-bearing NOD/SCID mice at 6 mg/kg QD. […] The % regression was calculated as: (Mean TV Compound 101 @ EOT)/(Mean TV Compound 101 @ Day 0)×100. The same calculations were used for end of study (day 42).
# [8] = system: palbociclib and fulvestrant double-resistant ER+BC PDX model (ST941); assay: Tumor growth inhibition in palbociclib and fulvestrant double-resistant PDX model; assay type: in vivo, mice; conditions: fulvestrant 2.5 mg/kg weekly SC
# Description: as §1
# [9] = system: 12 PDX models representing SCLC, TNBC and HGSOC; assay: TGI in 12 PDX models (Example 12); assay type: in vivo
# Description: Dosing was initiated when tumors were 150-300 mm^3. […] TGI was calculated on the last day of dosing using the formula: TGI=(Vc1−Vt1)/(Vc0−Vt0), where Vc1 and Vt1 are the mean volumes of control and treated groups at the time of tumor extraction, while Vc0 and Vt0 are the same groups at the start of dosing.
# [10] = system: HR+ breast cancer cell line T47D (PIK3CA p.H1047R); assay: In vitro combination study, CellTiter-Glo viability, CalcuSyn; assay type: cell-based; conditions: 5 days
Compound,transcriptional responses in xenograft tissue ([1]; after dosing),"TGI, in words ([1]; oral, 21 days, TNBC 10 mg/kg QD or 5 mg/kg BID, SCLC and HGSOC 3 mg/kg BID, followed 21 days after treatment)",Tumor growth inhibition (TGI) [2] [%],combination effect with carboplatin [3],combination effect with gemcitabine [3],combination effect with oxaliplatin ([4]; median effect principle (Chou-Talalay)),combination effect with trametinib ([4]; BRAF p.V600E mutant CRC),combination effect with capecitabine ([5]; HR+ MCF-7 cells),combination effect with alpelisib ([5]; PIK3CA p.E545K),combination effect with trametinib [6],TGI [7] [%],"Tumor growth inhibition (TGI) ([8]; last day of 28-day dosing, Compound 101 6 mg/kg QD PO) [%]","tolerability / body weight loss ([9]; all once-daily doses tested, tumor-bearing mice)","TGI of deep responses ([9]; subset of models (58%, 7/12), TGI or regression) [%]",MTD ([9]; tumor-bearing mice),combination effect with alpelisib [10],"activity (tumor growth inhibition), in words ([8]; palbociclib 50 mpk QD PO)"
"CC1(C)CC[C@H](Nc2ncc(C(F)(F)F)c(-c3c[nH]c4c(P(C)(C)=O)c(C#N)ccc34)n2)CN1 [Compound 101, (S)-7-(dimethylphosphoryl)-3-(2-((6,6-dimethylpiperidin-3-yl)amino)-5-(trifluoromethyl)pyrimidin-4-yl)-1H-indole-6-carbonitrile]",Dose-dependent transcriptional responses in xenograft tissue were observed within 4 hours of dosing and were sustained for 24 hours,"deep and sustained TGI, including regressions",83,showed synergy and was superior to either agent alone,showed synergy and was superior to either agent alone,showed synergy and was superior to either agent alone,significant synergy,showed synergy and was superior to either agent alone,significant synergy,significant synergy,100,33,"well tolerated, with no evident body weight loss",> 95,above 10 mg/kg once daily,significant synergy,
"C[C@]12CC[C@@H]3c4ccc(O)cc4C[C@@H](CCCCCCCCC[S+]([O-])CCCC(F)(F)C(F)(F)F)[C@H]3[C@@H]1CC[C@@H]2O (some centres unmarked) [fulvestrant, reference compound]",,,,,,,,,,,,,,,,,no activity
